{
  "source": "paper PMC4850449",
  "about": "“Bufexamac ameliorates LPS-induced acute lung injury in mice by targeting LTA4H” (Scientific Reports, 2016)",
  "molecular_target": "T1, LTA4H (leukotriene A4 hydrolase) (Homo sapiens, UniProt P09960)",
  "T1 sequence (P09960 2-611)": "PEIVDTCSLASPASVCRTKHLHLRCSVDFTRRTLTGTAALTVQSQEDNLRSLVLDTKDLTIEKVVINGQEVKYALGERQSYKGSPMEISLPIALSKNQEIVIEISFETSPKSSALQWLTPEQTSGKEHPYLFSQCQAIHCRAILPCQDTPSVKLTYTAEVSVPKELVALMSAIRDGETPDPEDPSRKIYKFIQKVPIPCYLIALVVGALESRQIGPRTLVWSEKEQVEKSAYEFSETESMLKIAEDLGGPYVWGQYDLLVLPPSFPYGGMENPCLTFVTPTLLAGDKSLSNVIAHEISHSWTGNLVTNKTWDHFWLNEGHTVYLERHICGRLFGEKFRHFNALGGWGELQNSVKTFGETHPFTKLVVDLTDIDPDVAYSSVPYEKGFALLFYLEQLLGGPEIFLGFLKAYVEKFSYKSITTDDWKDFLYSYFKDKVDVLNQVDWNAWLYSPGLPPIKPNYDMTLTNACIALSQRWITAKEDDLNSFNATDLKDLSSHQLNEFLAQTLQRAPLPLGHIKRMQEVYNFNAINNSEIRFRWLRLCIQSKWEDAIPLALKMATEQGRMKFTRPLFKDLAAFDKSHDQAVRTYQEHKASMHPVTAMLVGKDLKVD",
  "assay": "X-ray co-crystal structure ([…] Å); purified enzyme inhibition (epoxide hydrolase IC50 […], aminopeptidase IC50 […])",
  "type": "biochemical",
  "data": [
    {"smiles": "CCCCOc1ccc(CC(=O)NO)cc1", "note": "[Bufexamac]", "values": [
      {"measurement": "IC50", "value": 11.6, "unit": "µM"}
    ]}
  ]
}
